Results reported in PubChem BioAssay AID2060503 (Molecular Pharmacology Branch, DTP, NCI, 2025).

Tested on: 817829-284-R-J1-PDC complex spheroids, viability
Assay: Anticancer human tumor 817829-284-R-J1-PDC patient-derived colon adenocarcinoma cell line growth inhibition [GQUAD]
Conditions: for IC50: curve of first compound; for viability, T/C: stronger effect = lower value
Source text: DNA G-quadruplex Stabilizer Agents in Combinations in Complex Spheroids
A high-throughput screen of multi-cell type tumor spheroids was designed to identify active combinations of DNA G-quadruplex stabilizer agents and targeted small molecules. Complex spheroids include a stromal component modeled by human endothelial cells (HUVEC) and fibroblasts modeled by human mesenchymal stem cells (MSCs). The concentration ranges selected for each drug and investigational agent were based upon clinically achievable concentrations if the clinical Cmax of the agent was known.
Compounds. The drugs and investigational agents: pidnarulex (CX-5461; NSC782164), APTO-253 (NSC789042), BRACO-19 (NSC847499), peposertib (NSC802822), ceralasertib (NSC780249), elimusertib (NSC800525), camonsertib (NSC841442), AZD-1390 (NSC803789), olaparib (NSC753686), talazoparib (NSC767125), ART-558 (NSC835418), sotorasib (NSC818433), MRTX-1133 (NSC836407), SN-38 (NSC673596), topotecan (NSC609699), etoposide (NSC141540), doxorubicin (NSC123127), gemcitabine (NSC613327), 5-fluorouracil (NSC19893), paclitaxel (NSC125973), vemurafenib (NSC761431), panobinostat (NSC761190), R-306465 (JNJ-16241199; NSC773264), adavosertib (NSC754352), TP-3654 (NSC805149), carboplatin (NSC241240), KSQ-4279 (NSC840948), and staurosporine (NSC755774) were obtained from the National Cancer Institute (NCI) Developmental Therapeutics Program Chemical Repository (34). The FDA-approved anticancer drug set is available from the NCI Developmental Therapeutics Program. […] The stock solutions were prepared in dimethyl sulfoxide (DMSO, Sigma-Aldrich, St. Louis, MO, cat. D2650) at 800-fold the tested concentration and stored at -70 degrees C prior to their use. All drugs and investigational agents were tested over a range starting from a high concentration at or near the clinical Cmax and decreasing in half-log increments. If the clinical Cmax for an agent had not been determined, the highest concentration tested was 10 microM.
2.3 Cell Culture. All cells were maintained in an incubator at 37 degrees C and 5% CO2 with 95% humidity. The PDC lines were cultured according to standard operating procedures established by the NCI PDMR. All PDCs were thawed and cultured in Matrigel-coated flasks prepared with a working solution of 1X Ham's F-12 nutrient mix, without supplementation (Invitrogen, cat. 11765054), 100 U/mL penicillin-streptomycin (Invitrogen, cat. 15140122), and 2.5% Matrigel (Corning Inc., cat. 354248) for the first three passages. The 857933-349-R-J2-PDC line was cultured in 6C/Colon 1B media, which includes advanced DMEM/F-12 (Thermo Fisher Scientific, cat. 12634028), 10 mM HEPES (Thermo Fisher Scientific, cat. 15630080), 1X GlutaMAX supplement (Thermo Fisher Scientific, cat. 35050061), 0.1 mg/mL primocin (InvivoGen, cat. ant-pm-2), 10% defined fetal bovine serum, heat inactivated (HyClone Laboratories Inc., cat. SH30070.03HI), 50% L-WRN conditioned media (ATCC, cat. CRL-3276), 1.25 mM N-Acetyl-L-cysteine (Sigma-Aldrich, cat. A9165), 10 mM nicotinamide (Sigma-Aldrich, cat. N0636), 1X B-27 supplement (Thermo Fisher Scientific, cat. 17504044), 1X N-2 supplement (Thermo Fisher Scientific, cat. 17502048), 10 microM Y-27632 dihydrochloride (Tocris Bioscience, cat. 1254), and 50 ng/mL human EGF recombinant protein (Thermo Fisher Scientific, cat. PHG0311). The 485176-168-R4-J1-PDC line was cultured in Panc media, which includes all 6C/Colon 1B media components plus 100 ng/mL human FGF-10 (Thermo Fisher Scientific, cat. 100-26), 500 nM SB-431542 (Selleckchem, cat. S1067), and gastrin (Tocris, cat. 3006).
[…]

[1] = second compound 0.0316 µM, first compound 0.000999 µM
[2] = second compound 0.0316 µM, first compound 0.00316 µM
[3] = second compound 0.0316 µM, first compound 0.00999 µM
[4] = second compound 0.0316 µM, first compound 0.0316 µM
[5] = second compound 0.0316 µM, first compound 0.0999 µM
[6] = second compound 0.0316 µM, first compound 0.316 µM
[7] = second compound 0.1 µM, first compound 0.000999 µM
[8] = second compound 0.1 µM, first compound 0.00316 µM
[9] = second compound 0.1 µM, first compound 0.00999 µM
[10] = second compound 0.1 µM, first compound 0.0316 µM
[11] = second compound 0.1 µM, first compound 0.0999 µM
[12] = second compound 0.1 µM, first compound 0.316 µM
[13] = second compound 0.316 µM, first compound 0.000999 µM
[14] = second compound 0.316 µM, first compound 0.00316 µM
[15] = second compound 0.316 µM, first compound 0.00999 µM
[16] = second compound 0.316 µM, first compound 0.0316 µM
[17] = second compound 0.316 µM, first compound 0.0999 µM
[18] = second compound 0.316 µM, first compound 0.316 µM
[19] = second compound 1 µM, first compound 0.000999 µM
[20] = second compound 1 µM, first compound 0.00316 µM
[21] = second compound 1 µM, first compound 0.00999 µM
[22] = second compound 1 µM, first compound 0.0316 µM
[23] = second compound 1 µM, first compound 0.0999 µM
[24] = second compound 1 µM, first compound 0.316 µM
[25] = second compound 3.16 µM, first compound 0.000999 µM
[26] = second compound 3.16 µM, first compound 0.00316 µM
[27] = second compound 3.16 µM, first compound 0.00999 µM
[28] = second compound 3.16 µM, first compound 0.0316 µM
[29] = second compound 3.16 µM, first compound 0.0999 µM
[30] = second compound 3.16 µM, first compound 0.316 µM
[31] = second compound 10 µM, first compound 0.000999 µM
[32] = second compound 10 µM, first compound 0.00316 µM
[33] = second compound 10 µM, first compound 0.00999 µM
[34] = second compound 10 µM, first compound 0.0316 µM
[35] = second compound 10 µM, first compound 0.0999 µM
[36] = second compound 10 µM, first compound 0.316 µM
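Further: spheroids exposed to agents for 7 days before readout.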
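Wherever viability, T/C is given: percent viability relative to DMSO vehicle control taken as 100%.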

Work on `CC[C@@]1(O)C(=O)OCc2c1cc1n(c2=O)Cc2cc3c(CN(C)C)c(O)ccc3nc2-1` + Cc1[nH]c2ccc(F)cc2c1-c1nc2c3cccnc3c3ncccc3c2[nH]1 yielded an IC50 (second compound 0.0316 µM) of 47.6 nM, an IC50 (second compound 0.1 µM) of 60.3 nM and an IC50 (second compound 0.316 µM) of 51.7 nM. For the same compound, the IC50 (second compound 1 µM) was 52.2 nM, the IC50 (second compound 3.16 µM) was 26.5 nM and the IC50 (second compound 10 µM) was less than 0.999 nM. For the same compound, the viability, T/C [1] was 119%, the viability, T/C [2] was 84.5% and the viability, T/C [3] was 92.7%. It also gave a viability, T/C [4] of 51.8%, a viability, T/C [5] of 34.9% and a viability, T/C [6] of 26.6%. It also gave a viability, T/C [7] of 98.8%, a viability, T/C [8] of 104% and a viability, T/C [9] of 88.6%. It also gave a viability, T/C [10] of 70.9%, a viability, T/C [11] of 33.1% and a viability, T/C [12] of 27.1%. It also gave a viability, T/C [13] of 90%, a viability, T/C [14] of 111% and a viability, T/C [15] of 101%. It also gave a viability, T/C [16] of 63.6%, a viability, T/C [17] of 34.2% and a viability, T/C [18] of 26.1%. The viability, T/C [19] was 91.8%, the viability, T/C [20] was 110% and the viability, T/C [21] was 109%. For the same compound, the viability, T/C [22] was 64.8%, the viability, T/C [23] was 32.4% and the viability, T/C [24] was 29.1%. It also gave a viability, T/C [25] of 108%, a viability, T/C [26] of 111% and a viability, T/C [27] of 95.1%. The viability, T/C [28] was 41.9%, the viability, T/C [29] was 18.2% and the viability, T/C [30] was 15.7%. The viability, T/C [31] was 11%, the viability, T/C [32] was 22.5% and the viability, T/C [33] was 26.1%. It also gave a viability, T/C [34] of 7.2%, a viability, T/C [35] of 5.98% and a viability, T/C [36] of 5.1%.

For `Cn1ncnc1[C@H]1c2n[nH]c(=O)c3cc(F)cc(c23)N[C@@H]1c1ccc(F)cc1` + Cc1[nH]c2ccc(F)cc2c1-c1nc2c3cccnc3c3ncccc3c2[nH]1, the IC50 (second compound 0.0316 µM) was greater than 316 nM, the IC50 (second compound 0.1 µM) was greater than 316 nM and the IC50 (second compound 0.316 µM) was greater than 316 nM. It also gave an IC50 (second compound 1 µM) greater than 316 nM, an IC50 (second compound 3.16 µM) of 148 nM and an IC50 (second compound 10 µM) of 79.9 nM. It also gave a viability, T/C [1] of 93.8%, a viability, T/C [2] of 88.8% and a viability, T/C [3] of 95.5%. For the same compound, the viability, T/C [4] was 82.2%, the viability, T/C [5] was 96.1% and the viability, T/C [6] was 74.7%. It also gave a viability, T/C [7] of 93.5%, a viability, T/C [8] of 109% and a viability, T/C [9] of 94.5%. For the same compound, the viability, T/C [10] was 106%, the viability, T/C [11] was 89.2% and the viability, T/C [12] was 76.3%. For the same compound, the viability, T/C [13] was 83.9%, the viability, T/C [14] was 115% and the viability, T/C [15] was 102%. The viability, T/C [16] was 105%, the viability, T/C [17] was 86.5% and the viability, T/C [18] was 69.6%. It also gave a viability, T/C [19] of 82.6%, a viability, T/C [20] of 108% and a viability, T/C [21] of 116%. It also gave a viability, T/C [22] of 103%, a viability, T/C [23] of 80% and a viability, T/C [24] of 68.4%. It also gave a viability, T/C [25] of 89.1%, a viability, T/C [26] of 90.6% and a viability, T/C [27] of 87.5%. It also gave a viability, T/C [28] of 83.2%, a viability, T/C [29] of 54.6% and a viability, T/C [30] of 41.1%. It also gave a viability, T/C [31] of 69.3%, a viability, T/C [32] of 73.9% and a viability, T/C [33] of 76.3%. For the same compound, the viability, T/C [34] was 75.8%, the viability, T/C [35] was 44.3% and the viability, T/C [36] was 24.1%.
